Experimental data from paper PMC12286210, “Immobilization of Pleurotus eryngii Laccase via a Protein–Inorganic Hybrid for Efficient Degradation of Bisphenol A as a Potent Xenobiotic” (Journal of Xenobiotics, 2025).

Tested on: T1, PeLac (Pleurotus eryngii laccase)
T1 construct: gene ery3
Conditions: free enzyme, partially purified; ABTS 0.01-2.0 mM; 25 °C; co-substrate O2

Km: 118 ± 8.9 µM
SMILES: CCn1c(=NN=c2sc3cc(S(=O)(=O)O)ccc3n2CC)sc2cc(S(=O)(=O)O)ccc21 [ABTS]
